Measured values as given in US4382943A, “Anti-allergic aryl ether derivatives” (Boehringer Mannheim GmbH, priority 1980, dated 1983).
Counter-ions that a name gives are not always drawn.

Tested on: antigen induced bronchospasm in passively sensitized guinea pigs
Assay: Inhibition of antigen induced bronchospasm (Br Sp) in passively sensitized guinea pigs
Format: in vivo, guinea pig
Conditions: Cavia porcellus, po, 0.05 h, 60 min before antigen, 3 min after antigen; for inhibition in vivo at 0.75 mg/kg: 0.75 mg/kg p.o.; for inhibition in vivo at 0.38 mg/kg: 0.38 mg/kg p.o.
Protocol: Specifically, tests were run as follows: […] Equal volumes of saline solution of antigen (5 mg/ml) and Freund's complete adjuvant were emulsified and 0.15 ml injected into each hind foot of adult male guinea pigs (Davies and Johnson: Int. Arch. Allergy 41,648-654 (1971)). The animals were bled and the pooled serum stored at -20° C. Passive Sensitization Injections of 0.5 ml antiserum of 1:50 dilution were given i.v. 24-48 h before challenge. Guinea pigs were anaesthetized with phenobarbital sodium (40 mg/kg i.p.). Cannulae were tied into the trachea and the jugular vein and the lung inflated with a pump at a rate of 72 strokes/min and a constant stroke volume of 6-8 ml. Bronchospasm, provoked by injecting ovalbumin i.v. was measured as described by Konzett, H. and R. Rossler, "Versuchsanordnung su Untersuchungen an der Bronchialmuskulatur" Naunyn-Schmiedebergs, Arch. exp. Path. Pharmak. 195, 71-74 (1940) and modified by Collier, […] and M. Schachter: "The Bronchoconstrictor Action of Bradykinin in the Guinea-Pig" Brit. J. Pharmacol. 15, 290 (1960). The drugs were applied per os 60 minutes before the antigen. For calculation the following formula was used: % Bronchospasm (b-a)/(m-a)×100 b=Bronchospasm after antigen injection, measured in mm from tracing m=maximum height of tracing in mm with arm of the tracheacannula clamped a=pre injection height of the tracing in mm % inhibition of bronchospasm was calculated by comparing control groups with drug pretreated groups 3 minutes after antigen application.

Cc1ccccc1C(=O)NC1CCN(CCCOc2ccc3c4c(c(=O)oc3c2)CCC4)CC1 [Example 4, 2,3-dihydro-7-{3-[4-(2-methylbenzamido)-piperidino]-propoxy}-cyclopenta[c][1]benzopyran-4(1H)-one]
inhibition in vivo at 0.75 mg/kg: 76%

O=C(NC1CCN(CCCOc2ccc3c4c(c(=O)oc3c2)CCC4)CC1)c1ccc(F)cc1 [Example 2, 2,3-dihydro-7-{3-[4-(4-fluorobenzamido)-piperidino]-propoxy}-cyclopenta[c][1]benzopyran-4(1H)-one hydrochloride]
inhibition in vivo at 0.38 mg/kg: 67%

O=C(Cc1ccccc1)NC1CCN(CCCOc2ccc3c4c(c(=O)oc3c2)CCC4)CC1 [Example 8, 2,3-dihydro-7-[3-(4-phenylacetamido-piperidino)-propoxy]-cyclopenta-[c][1]benzopyran-4(1H)-one]
inhibition in vivo at 0.75 mg/kg: 70%

CC(C)(C)NCC(O)c1cc(O)cc(O)c1 (stereo not drawn) [Terbutalin, reference compound]
inhibition in vivo at 0.1 mg/kg (0.1 mg/kg p.o.): 12% | inhibition in vivo at 1 mg/kg (1.0 mg/kg p.o.): 52%

CC(=O)c1c(OCCCN2CCC(NC(=O)c3ccccc3)CC2)ccc2c3c(c(=O)oc12)CCC3 [Example 14, 6-acetyl-7-[3-(4-benzamido-piperidino)-propoxy]-2,3-dihydro-cyclopenta[c][1]benzopyran-4(1H)-one]
inhibition in vivo at 0.38 mg/kg: 79%

COc1ccc(C(=O)NC2CCN(CCCOc3ccc4c5c(c(=O)oc4c3)CCCC5)CC2)cc1 [Example 18, 3-{3-[4-(4-methoxybenzamido)-piperidino]-propoxy}-7,8,9,10-tetrahydro-6H--dibenzo[b,d]-pyran-6-one]
inhibition in vivo at 0.38 mg/kg: 35% | inhibition in vivo at 0.75 mg/kg: 87%

Cc1ccccc1C(=O)NC1CCN(CCCOc2ccc3c4c(c(=O)oc3c2)CCCC4)CC1 [Example 21, 3-{3-[4-(2-methyl-benzamido)-piperidino]-propoxy}-7,8,9,10-tetrahydro-6H--dibenzo[b,d]pyran-6-one]
inhibition in vivo at 0.38 mg/kg: 51% | inhibition in vivo at 0.75 mg/kg: 78%

O=C(NC1CCN(CCCOc2ccc3c4c(c(=O)oc3c2)CCC4)CC1)c1ccccc1 [Example 1, 7-[3-(4-Benzamidopiperidino)-propoxy]-2,3-dihydrocyclopenta[c][1]benzopyran-4(1H)one hydrochloride]
inhibition in vivo at 0.38 mg/kg: 47%

O=C(NC1CCN(CCCOc2ccc3c4c(c(=O)oc3c2)CCCC4)CC1)c1ccc(F)cc1 [Example 17, 3-{3-[4-(4-fluorobenzamido)-piperidino]-propoxy}-7,8,9,10-tetrahydro-6H--dibenzo[b,d]pyran-6-one hydrochloride]
inhibition in vivo at 0.38 mg/kg: 58%
